Results reported in patent US20110274763A1, “Slow releasing microcapsules and microspheres containing an active substance” (priority 2009, published 2011).
Read-outs that look alike come from different tables or passages of the source.

Assays:
[1] = plates in 2000 ml water, 0.4% medetomidine in wet paint
Protocol: Four different 30 g paint samples were prepared. Two of the samples were based on biocide-free and water-based standard white exterior wall paint, while the two other samples were based on biocide-free and organic solvent-based standard white exterior wall paint. Medetomidine was added to each sample, either in free form or the form of microspheres. ^14C-labelled material was 2.3% of all medetomidine. Wet paint contained in total 0.4% medetomidine. Stirring the paint with an electrical mixer assured homogeneous dispersion of the added substance. For the release studies, approximately 1 g (dry state) of the paint systems was applied on poly(propylene) plates using a paint applicator. After drying and weighing, each plate was vertically positioned in a closed container containing 2000 ml water that covered the plate. The containers were placed on a mechanical shaker. At various times 1000 μl water was pipetted out from each system and transferred to 20 ml tubes.

[2] = system: barnacles and other fouling organisms; details: 0.1% by weight medetomidine or equivalent in marine paint; six and ten months of submersion in the sea, Swedish west coast
Protocol: PMMA test panels 1 dm^2 was painted by brush with three different biocide free commercially available marine paints. 3 ml of paint were used for each layer and there were two layers applied on each panel. These panels were used as references. To the same paints in different cans were added 0.1% by weight of medetomidine or an equivalent amount of medetomidine encapsulated in microspheres. The paint mixtures were applied to the same kind of test panels as the reference paints. All panels were made in triplicates and mounted randomly on a frame for submersion into the sea on the Swedish west coast (Tjärnö Marine Biological Laboratory). After six months and ten months (June 2009 to December 2009 and in April 2010) of submersion they were inspected.

[3] = IPBC release from painted surfaces immersed in water (14C, liquid scintillation); assay type: physicochemical; details: water-based paint; 0.1% IPBC in wet paint; microspheres with 10% and 25% loading; plates in 250 ml water
Protocol: Three different 10 g paint samples were prepared. […] A specific fraction of the IPBC was ^14C-labelled material. Wet paint contained in total 0.1% IPBC. Stirring the paint assured homogeneous dispersion of the added substance. […] The containers were placed on a mechanical shaker. […] The release of free IPBC is about three times faster than that from microspheres.

SMILES | release of free medetomidine compared with that from microspheres ([1]; solvent-based paint) | release of free medetomidine compared with that from microspheres ([1]; water-based paint) | barnacle / tubeworm attachment on painted panels [2] | release of free IPBC compared with that from microspheres [3]
Cc1cccc(C(C)c2cnc[nH]2)c1C (stereo not shown) [medetomidine, 4-[1-(2,3-dimethylphenyl)ethyl]-3H-imidazole] | ten | about two | no barnacles or tubeworms attached | 
CCCCNC(=O)OCC#CI [free IPBC, 3-iodo-2-propynyl butylcarbamate] |  |  |  | about three
